ChEMBL document CHEMBL2331129, “Development and characterization of monomeric N-end rule inhibitors through in vitro model substrates” (J Med Chem, 2013)
Calls of active or inactive are those of the source. The rule behind the calls is not given here.

Tests used:
Oryctolagus cuniculus [1] = species on record: Oryctolagus cuniculus; assay: Inhibition of UBR protein in rabbit reticulocyte lysates assessed as inhibition of RGS4 substrate degradation at 2 mM after 30 to 60 mins in presence of bestatin
Oryctolagus cuniculus [2] = species on record: Oryctolagus cuniculus; details: at 2 mM
Description: Inhibition of UBR protein in rabbit reticulocyte lysates assessed as inhibition of Tyr-nsP4 substrate degradation at 2 mM by immunoblotting analysis in presence of bestatin

[3] = Inhibition of UBR protein in rabbit reticulocyte lysates assessed as inhibition of Tyr-nsP4 substrate degradation by in vitro synthesis/degradation assay; set-up: species or system Oryctolagus cuniculus
[4] = Inhibition of UBR protein in rabbit reticulocyte lysates assessed as inhibition of Arg-nsP4 substrate degradation by in vitro synthesis/degradation assay; set-up: species or system Oryctolagus cuniculus
Oryctolagus cuniculus [5] = species on record: Oryctolagus cuniculus; assay: Inhibition of UBR protein in rabbit reticulocyte lysates assessed as inhibition of Arg-nsP4 substrate degradation at 1 mM after 30 mins by Western blot analysis
Oryctolagus cuniculus [6] = species on record: Oryctolagus cuniculus
Description: Inhibition of UBR protein in rabbit reticulocyte lysates assessed as inhibition of Tyr-nsP4 substrate degradation measuring substrate half life at 2 mM

Oryctolagus cuniculus [7] = species on record: Oryctolagus cuniculus; details: at 2 mM; remark: listed apart in the source
Description: Inhibition of UBR protein in rabbit reticulocyte lysates assessed as inhibition of Tyr-nsP4 substrate degradation at 2 mM

Oryctolagus cuniculus [8] = species on record: Oryctolagus cuniculus; assay: Inhibition of UBR protein in rabbit reticulocyte lysates assessed as inhibition of Arg-nsP4 substrate degradation at 6 mM by SDS-PAGE in presence of bestatin
Oryctolagus cuniculus [9] = species on record: Oryctolagus cuniculus; assay: Inhibition of UBR protein in rabbit reticulocyte lysates assessed as inhibition of Arg-nsP4 substrate degradation at 2 mM after 30 mins by Western blot analysis
Oryctolagus cuniculus [10] = species on record: Oryctolagus cuniculus; assay: Inhibition of UBR protein in rabbit reticulocyte lysates assessed as inhibition of Arg-nsP4 substrate degradation at 2 mM by SDS-PAGE in presence of bestatin

| SMILES | inhibition (Oryctolagus cuniculus [2]) | inhibition (Oryctolagus cuniculus [7]) | other results |
| --- | --- | --- | --- |
| NC(N)=NCCC[C@H](N)C(=O)N[C@@H](Cc1ccccc1)C(=O)O | – | – | inhibition (Oryctolagus cuniculus [1]): Active |
| CC(N)Cc1ccccc1 (configuration not stated) | Active | – | – |
| CC(N)Cc1ccc(Cl)cc1 (configuration not stated) | Active | – | IC50 [3]: 1.17 mM; IC50 [4]: 0.935 mM; inhibition (Oryctolagus cuniculus [5]): Active; T1/2 (Oryctolagus cuniculus [6]): 1.05 h |
| CCCCCNC(=O)[C@@H](N)Cc1ccccc1 | Active | Active | – |
| N[C@@H](Cc1ccccc1)C(=O)NCCC(=O)O | Active | Active | – |
| NC(=O)[C@@H](N)Cc1ccccc1 | inactive | Active | – |
| N[C@@H](Cc1ccccc1)C(=O)NCCCCC(=O)O | Active | Active | – |
| C[C@H](NC[C@@H](N)Cc1ccccc1)C(=O)O | inactive | – | – |
| C[C@H](NC(=O)[C@H](N)CCCNC(=N)N)C(=O)O | – | – | inhibition (Oryctolagus cuniculus [8]): inactive; inhibition (Oryctolagus cuniculus [1]): inactive |
| C[C@H](NC(=O)[C@@H](N)CCCN=C(N)N)C(=O)O | – | – | IC50 [4]: 1.2 mM; inhibition (Oryctolagus cuniculus [9]): Active; inhibition (Oryctolagus cuniculus [1]): Active; inhibition (Oryctolagus cuniculus [10]): Active |
| N[C@@H](Cc1ccccc1)C(=O)NCCCP(=O)(O)O | Active | Active | – |
| CC(=O)N[C@@H](Cc1ccccc1)C(=O)N[C@@H](C)C(=O)O | inactive | – | – |
| N=C(N)NCCC[C@@H](N)C(=O)N[C@@H](Cc1ccccc1)C(=O)O | – | – | inhibition (Oryctolagus cuniculus [1]): inactive |
| CC(=O)N[C@@H](Cc1ccccc1)C(=O)O | inactive | inactive | – |
| CC(=O)N[C@@H](Cc1ccccc1)C(N)=O | inactive | inactive | – |
| COC(=O)CCCCNC(=O)[C@@H](N)Cc1ccccc1 | Active | Active | – |
